Holding throughout (test): cell-based
The target of one assay is hNav1.3 (Homo sapiens, UniProt Q9NY46). The following applies: IonWorks Quattro, use, […], read-out: IWQ Use Nav1.3. Background: The patch-clamp technique gives a direct electrical read-out from membranes.
A further assay has as its target hNav1.7 (Homo sapiens, UniProt Q15858). In kind it is cell-based. To be noted: IonWorks Quattro, use, […], read-out: IWQ Use Nav1.7.
For the next assay, the target named is hNav1.5 (Homo sapiens, UniProt Q14524). The following applies: IonWorks Quattro, use, […], read-out: IWQ Use Nav1.5.
hNav1.5, sequence (Q14524 whole entry, looked up): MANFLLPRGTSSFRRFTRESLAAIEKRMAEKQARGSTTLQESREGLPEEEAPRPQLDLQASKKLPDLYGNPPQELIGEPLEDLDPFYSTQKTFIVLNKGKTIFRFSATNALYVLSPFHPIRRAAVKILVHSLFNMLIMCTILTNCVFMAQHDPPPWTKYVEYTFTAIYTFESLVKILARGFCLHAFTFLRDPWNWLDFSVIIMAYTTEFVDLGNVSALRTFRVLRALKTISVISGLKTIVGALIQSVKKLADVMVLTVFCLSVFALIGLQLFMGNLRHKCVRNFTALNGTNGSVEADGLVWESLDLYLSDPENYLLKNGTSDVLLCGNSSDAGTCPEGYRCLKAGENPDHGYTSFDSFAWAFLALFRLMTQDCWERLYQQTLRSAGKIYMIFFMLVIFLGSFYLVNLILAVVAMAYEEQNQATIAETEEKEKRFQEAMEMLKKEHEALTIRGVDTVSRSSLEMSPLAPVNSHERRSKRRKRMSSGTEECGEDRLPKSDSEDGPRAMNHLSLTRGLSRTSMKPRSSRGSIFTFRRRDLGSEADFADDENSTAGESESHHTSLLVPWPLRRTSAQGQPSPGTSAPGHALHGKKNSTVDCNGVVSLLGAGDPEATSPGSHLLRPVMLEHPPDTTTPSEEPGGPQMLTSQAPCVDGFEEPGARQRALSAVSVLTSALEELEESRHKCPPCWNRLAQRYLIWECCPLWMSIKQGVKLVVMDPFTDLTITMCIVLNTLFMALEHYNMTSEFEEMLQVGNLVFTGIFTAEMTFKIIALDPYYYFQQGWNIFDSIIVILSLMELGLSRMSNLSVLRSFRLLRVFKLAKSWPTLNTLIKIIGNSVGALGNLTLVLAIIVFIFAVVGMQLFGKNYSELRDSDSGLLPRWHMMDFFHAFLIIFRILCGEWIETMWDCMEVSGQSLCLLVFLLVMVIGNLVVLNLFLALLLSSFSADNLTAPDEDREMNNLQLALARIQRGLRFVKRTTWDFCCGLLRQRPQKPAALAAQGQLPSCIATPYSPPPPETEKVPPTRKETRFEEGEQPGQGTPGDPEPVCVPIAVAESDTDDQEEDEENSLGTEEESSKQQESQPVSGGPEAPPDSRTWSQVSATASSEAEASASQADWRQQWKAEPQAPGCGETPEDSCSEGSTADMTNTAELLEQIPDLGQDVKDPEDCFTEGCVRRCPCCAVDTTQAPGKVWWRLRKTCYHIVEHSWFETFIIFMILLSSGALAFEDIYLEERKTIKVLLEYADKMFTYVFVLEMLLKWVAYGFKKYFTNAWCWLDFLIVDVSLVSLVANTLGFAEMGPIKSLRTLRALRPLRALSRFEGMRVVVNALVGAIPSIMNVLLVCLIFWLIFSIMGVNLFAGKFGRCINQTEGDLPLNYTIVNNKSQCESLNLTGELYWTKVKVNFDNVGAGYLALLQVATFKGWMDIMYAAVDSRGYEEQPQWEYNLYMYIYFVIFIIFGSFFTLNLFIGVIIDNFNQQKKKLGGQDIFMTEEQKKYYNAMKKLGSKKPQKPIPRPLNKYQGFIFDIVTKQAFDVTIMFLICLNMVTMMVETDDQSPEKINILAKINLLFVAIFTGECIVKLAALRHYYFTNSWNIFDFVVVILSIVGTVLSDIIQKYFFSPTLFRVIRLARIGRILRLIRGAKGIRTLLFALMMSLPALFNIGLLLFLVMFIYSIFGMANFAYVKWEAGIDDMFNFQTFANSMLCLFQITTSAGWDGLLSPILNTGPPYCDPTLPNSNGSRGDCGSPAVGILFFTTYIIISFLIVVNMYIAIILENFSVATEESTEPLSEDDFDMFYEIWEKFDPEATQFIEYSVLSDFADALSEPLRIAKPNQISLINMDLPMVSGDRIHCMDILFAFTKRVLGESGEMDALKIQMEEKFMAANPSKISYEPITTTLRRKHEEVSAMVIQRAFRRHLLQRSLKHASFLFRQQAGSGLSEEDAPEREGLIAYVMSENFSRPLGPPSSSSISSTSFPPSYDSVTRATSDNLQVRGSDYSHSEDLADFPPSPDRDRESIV

Each structure is given as a SMILES string. Where two headings read alike, the source gives them in different places. Positions of bridges follow the written chain, without caps; N, C: chain ends. Residues, ends and D or L forms follow the SMILES beside them.

hNav1.7, sequence (Q15858 whole entry, looked up): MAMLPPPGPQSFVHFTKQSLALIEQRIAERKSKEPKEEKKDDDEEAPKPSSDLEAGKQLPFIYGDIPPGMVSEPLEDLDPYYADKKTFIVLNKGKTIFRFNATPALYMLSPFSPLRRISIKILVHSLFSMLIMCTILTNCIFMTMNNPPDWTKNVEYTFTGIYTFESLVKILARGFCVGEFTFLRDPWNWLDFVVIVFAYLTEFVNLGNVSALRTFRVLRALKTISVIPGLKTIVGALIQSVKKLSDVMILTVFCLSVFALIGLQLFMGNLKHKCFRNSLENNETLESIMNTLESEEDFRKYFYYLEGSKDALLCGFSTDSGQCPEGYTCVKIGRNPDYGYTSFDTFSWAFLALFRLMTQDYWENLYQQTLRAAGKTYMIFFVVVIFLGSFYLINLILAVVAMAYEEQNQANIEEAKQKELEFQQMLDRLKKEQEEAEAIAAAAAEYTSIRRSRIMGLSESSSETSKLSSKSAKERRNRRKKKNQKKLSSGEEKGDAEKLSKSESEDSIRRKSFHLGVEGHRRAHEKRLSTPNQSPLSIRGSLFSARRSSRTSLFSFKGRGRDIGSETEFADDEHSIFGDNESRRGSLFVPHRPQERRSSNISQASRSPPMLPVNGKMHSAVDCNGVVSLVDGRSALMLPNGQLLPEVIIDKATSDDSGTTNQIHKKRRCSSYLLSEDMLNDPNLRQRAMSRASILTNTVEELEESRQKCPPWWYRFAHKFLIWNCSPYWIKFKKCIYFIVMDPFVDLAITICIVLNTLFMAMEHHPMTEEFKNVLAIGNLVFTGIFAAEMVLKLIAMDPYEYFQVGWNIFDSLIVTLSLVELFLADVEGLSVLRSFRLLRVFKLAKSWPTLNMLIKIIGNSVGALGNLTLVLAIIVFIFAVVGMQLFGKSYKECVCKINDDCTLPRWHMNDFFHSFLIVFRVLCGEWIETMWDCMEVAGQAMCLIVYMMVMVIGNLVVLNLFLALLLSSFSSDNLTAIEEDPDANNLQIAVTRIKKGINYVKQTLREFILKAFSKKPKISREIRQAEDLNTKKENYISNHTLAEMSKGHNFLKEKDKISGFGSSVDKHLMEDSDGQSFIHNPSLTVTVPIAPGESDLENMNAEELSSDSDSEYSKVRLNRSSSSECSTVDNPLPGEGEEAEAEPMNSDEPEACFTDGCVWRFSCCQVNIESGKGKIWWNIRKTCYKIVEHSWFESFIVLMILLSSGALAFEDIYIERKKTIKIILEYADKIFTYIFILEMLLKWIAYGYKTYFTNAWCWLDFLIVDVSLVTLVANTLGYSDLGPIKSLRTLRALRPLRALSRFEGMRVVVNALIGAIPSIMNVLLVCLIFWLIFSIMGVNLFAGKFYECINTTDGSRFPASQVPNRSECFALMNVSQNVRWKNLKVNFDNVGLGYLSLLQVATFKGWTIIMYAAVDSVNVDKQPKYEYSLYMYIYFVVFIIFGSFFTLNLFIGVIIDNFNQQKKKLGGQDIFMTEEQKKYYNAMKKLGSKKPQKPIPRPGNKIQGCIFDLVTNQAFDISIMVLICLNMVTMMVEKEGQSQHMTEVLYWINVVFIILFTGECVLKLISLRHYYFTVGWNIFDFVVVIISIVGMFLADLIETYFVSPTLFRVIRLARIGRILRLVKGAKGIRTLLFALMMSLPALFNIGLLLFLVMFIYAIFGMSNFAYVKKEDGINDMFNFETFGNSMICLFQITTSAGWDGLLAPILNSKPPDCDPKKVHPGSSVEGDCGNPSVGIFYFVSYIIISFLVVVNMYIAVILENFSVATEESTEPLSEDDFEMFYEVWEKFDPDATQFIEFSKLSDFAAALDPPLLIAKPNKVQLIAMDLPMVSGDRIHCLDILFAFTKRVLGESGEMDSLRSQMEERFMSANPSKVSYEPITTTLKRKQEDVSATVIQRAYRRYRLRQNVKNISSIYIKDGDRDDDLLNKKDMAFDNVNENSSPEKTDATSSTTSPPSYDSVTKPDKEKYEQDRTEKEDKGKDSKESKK

Regarding `CC[C@H](C)[C@@H]1NC(=O)[C@@H]2CSSC[C@@H]3NC(=O)[C@H](C(C)C)NC(=O)[C@H](CC(C)C)NC(=O)[C@H](CC(N)=O)NC(=O)[C@@H]4CCCN4C(=O)[C@H](CCCNC(=N)N)NC(=O)[C@H](CSSC[C@H](NC(=O)[C@@H](N)CC(=O)O)C(=O)N[C@@H](CC(C)C)C(=O)NCC(=O)N[C@@H](Cc4ccccc4)C(=O)N[C@@H](CCSC)C(=O)N[C@@H](CCCNC(=N)N)C(=O)N[C@@H](CCCCN)C(=O)N2)NC(=O)[C@H](CSSC[C@@H](C(=O)N[C@@H](CCCCN)C(=O)N[C@@H](Cc2ccc(O)cc2)C(=O)N[C@H](C(=O)N[C@@H](Cc2ccccc2)C(N)=O)C(C)C)NC(=O)[C@H](CCCNC(=N)N)NC(=O)[C@H](CCCCN)NC(=O)[C@H](Cc2cnc[nH]2)NC(=O)[C@H]([C@@H](C)O)NC(=O)[C@H](CCCNC(=N)N)NC(=O)[C@H](CO)NC3=O)NC(=O)[C@H](CCCCN)NC(=O)[C@H](CC(=O)O)NC(=O)[C@H](CC(N)=O)NC(=O)[C@H](CC(=O)O)NC(=O)[C@@H]2CCCN2C1=O` [compound 104] (H-DCLGFMRKCIPDNDKCCRPNLVCSRTHKRCKYVF-NH2; disulfide 2-17, 9-23, 16-30), the IC50 at hNav1.3 (Table 24) is 11400 nM; at hNav1.7 (Table 24) it was 9730 nM; on hNav1.5 (Table 24), 18800 nM.

Turning to `CC[C@H](C)[C@@H]1NC(=O)[C@@H]2CSSC[C@@H]3NC(=O)[C@H](C(C)C)NC(=O)[C@H](CC(C)C)NC(=O)[C@H](CC(N)=O)NC(=O)[C@@H]4CCCN4C(=O)[C@H](CCCNC(=N)N)NC(=O)[C@H](CSSC[C@H](NC(=O)[C@@H](N)CC(=O)O)C(=O)N[C@@H](CC(C)C)C(=O)NCC(=O)N[C@@H](Cc4ccccc4)C(=O)N[C@@H](CCSC)C(=O)N[C@@H](CCCNC(=N)N)C(=O)N[C@@H](CCCCN)C(=O)N2)NC(=O)[C@H](CSSC[C@@H](C(=O)N[C@@H](CCCCN)C(=O)N[C@@H](Cc2ccc(O)cc2)C(=O)N[C@H](C(=O)N[C@@H](Cc2ccccc2)C(N)=O)C(C)C)NC(=O)[C@H](Cc2c[nH]c4ccccc24)NC(=O)[C@H](CCCCN)NC(=O)[C@H](Cc2ccccc2)NC(=O)[C@H]([C@@H](C)O)NC(=O)[C@H](CCCNC(=N)N)NC(=O)[C@H](CO)NC3=O)NC(=O)[C@H](CCCCN)NC(=O)[C@H](CC(=O)O)NC(=O)[C@H](CC(N)=O)NC(=O)[C@H](CC(=O)O)NC(=O)[C@@H]2CCCN2C1=O` [compound 109] (H-DCLGFMRKCIPDNDKCCRPNLVCSRTFKWCKYVF-NH2; disulfide 2-17, 9-23, 16-30), the IC50 came to 530 nM at hNav1.3 (Table 23), 220 nM on hNav1.7 (Table 23) and 2060 nM at hNav1.5 (Table 23).

As for `CC[C@H](C)[C@@H]1NC(=O)[C@@H]2CSSC[C@@H]3NC(=O)[C@H](C(C)C)NC(=O)[C@H](CC(C)C)NC(=O)[C@H](CC(N)=O)NC(=O)[C@@H]4CCCN4C(=O)[C@H](CCCNC(=N)N)NC(=O)[C@H](CSSC[C@H](NC(=O)[C@@H](N)CC(=O)O)C(=O)N[C@@H](CC(C)C)C(=O)NCC(=O)N[C@@H](Cc4ccccc4)C(=O)N[C@@H](CCSC)C(=O)N[C@@H](CCCNC(=N)N)C(=O)N[C@@H](CCCCN)C(=O)N2)NC(=O)[C@H](CSSC[C@@H](C(=O)N[C@@H](CCCCN)C(=O)N[C@@H](Cc2ccc(O)cc2)C(=O)N[C@H](C(=O)N[C@@H](Cc2ccccc2)C(N)=O)C(C)C)NC(=O)[C@H](Cc2c[nH]c4ccccc24)NC(=O)[C@H](CCCCN)NC(=O)[C@H](Cc2ccc(O)cc2)NC(=O)[C@H]([C@@H](C)O)NC(=O)[C@H](CCCNC(=N)N)NC(=O)[C@H](CO)NC3=O)NC(=O)[C@H](CCCCN)NC(=O)[C@H](CC(=O)O)NC(=O)[C@H](CC(N)=O)NC(=O)[C@H](CC(=O)O)NC(=O)[C@@H]2CCCN2C1=O` [compound 110] (H-DCLGFMRKCIPDNDKCCRPNLVCSRTYKWCKYVF-NH2; disulfide 2-17, 9-23, 16-30), the results for the IC50 at hNav1.3 (Table 23), at hNav1.7 (Table 23) and at hNav1.5 (Table 23) were 310 nM, 190 nM and 6390 nM, respectively.

Source of the values: US9340590B2 (priority 2011, dated 2016).
